Measurements: article PMC3424241, “The Octadecaneuropeptide ODN Protects Astrocytes against Hydrogen Peroxide-Induced Apoptosis via a PKA/MAPK-Dependent Mechanism” (PLoS ONE, 2012)

Assays:
[1] = system: Bax; test: Bax mRNA level, quantitative RT-PCR; assay type: cell-based, rat; conditions: ODN 0.1 nM
Description: (§1) Secondary cultures of rat cortical astrocytes were prepared as previously described [64]with minor modifications. Briefly, cerebral hemispheres from newborn Wistar rats were collected in DMEM/F12 (2∶1; v/v) culture medium supplemented with 2 mM L-glutamine, 1‰ insulin, 5 mM HEPES, 0.4% glucose and 1% of the antibiotic-antimycotic solution. The tissues were dissociated mechanically with a syringe equipped with a 1-mm gauge needle, and filtered through a 100-µm sieve (Falcon, Franklin Lakes, NJ, USA). Dissociated cells were resuspended in culture medium supplemented with 10% FBS, plated in 175-cm^2 flasks (Greiner Bio-one GmbH, Frickenhausen, Germany) and incubated at 37°C in a 5% CO2/[…] atmosphere. When cultures were confluent, astrocytes were isolated by shaking overnight the flasks on an orbital agitator. Adhesive cells were detached by trypsination and preplated for 5 min to discard contaminating microglial cells. Then, the non-adhering astrocytes were harvested and plated on 35-mm hydrophilic surface Petri dishes at a density of 3×10^5 cells/ml. […]
(§2) Cultured cells were incubated at 37°C for 1 h with fresh serum-free medium in the absence or presence of test substances. […] The amount of Bax and Bcl-2 cDNA in each sample was calculated by the comparative threshold cycle (Ct) method and expressed as 2^exp(−ΔΔCt) using glyceraldehyde-3-phosphate dehydrogenase as an internal control.

[2] = system: cultured rat astrocytes; test: Living-cell staining and morphology with calcein-AM after H2O2; assay type: cell-based; conditions: ODN 0.1 nM pretreatment 10 min, then 1 h 300 µM H2O2; calcein-AM staining
Description: as §1, with “cells.” for “cells. Then, the non-adhering astrocytes were harvested and plated on 35-mm hydrophilic surface Petri dishes at a density of 3×10^5 cells/ml.”
Cultured cells were incubated at 37°C with fresh serum-free culture medium in the absence or presence of H2O2 and/or ODN for 1 h. Cells were then incubated for 10 min at 37°C with 0.3 µg/ml calcein-AM (producing green fluorescence in living cells), rinsed twice with culture medium without probe and examined on an inverted microscope (Leica, Heidelberg, Germany) equipped with a double pass filter.

[3] = system: caspase-3; set-up: method as in PMID 21599667; conditions: subnanomolar concentrations of ODN, cultured astrocytes; cited from earlier work
[4] = system: Bcl-2; test: Bcl-2 mRNA level, quantitative RT-PCR; assay type: cell-based, rat; conditions: ODN 0.1 nM
Description: as §1, §2

[5] = system: cAMP formation in astroglial cells (adenylyl cyclase); test: cAMP production, radioimmunoassay; assay type: cell-based, rat; conditions: ODN 10 pM; 0.1 mM IBMX, 10 min incubation; p<0.001
Description: as §1
Cultured cells were pre-incubated for 30 min in serum-free medium containing 0.1 mM IBMX to inhibit phosphodiesterases, and then incubated in the same solution, in the presence or absence of test substances. […] The concentration of cAMP was measured by using a cAMP RIA kit. […]

[6] = system: ERK1 and ERK2; test: ERK phosphorylation, Western blot; assay type: cell-based, rat
Description: Secondary cultures of rat cortical astrocytes were prepared as previously described [64]with minor modifications. Briefly, cerebral hemispheres from newborn Wistar rats were collected in DMEM/F12 (2∶1; v/v) culture medium supplemented with 2 mM L-glutamine, 1‰ insulin, 5 mM HEPES, 0.4% glucose and 1% of the antibiotic-antimycotic solution. The tissues were dissociated mechanically with a syringe equipped with a 1-mm gauge needle, and filtered through a 100-µm sieve (Falcon, Franklin Lakes, NJ, USA). Dissociated cells were resuspended in culture medium supplemented with 10% FBS, plated in 175-cm^2 flasks (Greiner Bio-one GmbH, Frickenhausen, Germany) and incubated at 37°C in a 5% CO2/[…] atmosphere. When cultures were confluent, astrocytes were isolated by shaking overnight the flasks on an orbital agitator. Adhesive cells were detached by trypsination and preplated for 5 min to discard contaminating microglial cells. Then, the non-adhering astrocytes were harvested and plated on 35-mm hydrophilic surface Petri dishes at a density of 3×10^5 cells/ml. For measurement of cell survival, caspase-3 activity and mitochondrial activity, cells were plated in hydrophilic surface 24-well plates at a density of 8×10^4 cells/ml. The cells were incubated at 37°C in a humid atmosphere (5% CO2). After 5 days (DIV5), more than 99% of the cells were labeled with antibodies against glial fibrillary acidic protein [65]. All experiments were performed on 5- to 7-day-old secondary cultures.
Cultured cells were incubated at 37°C for 1 h with fresh serum-free medium in the absence or presence of test substances. Total proteins were extracted with lysis buffer containing 1% Triton X-100, 50 mM Tris/HCl and 10 mM EDTA. After centrifugation (20,000 g, 4°C, 15 min), the proteins contained in the supernatant were precipitated by addition of ice-cold 10% TCA. The extract was centrifuged (15,000 g, 4°C, 15 min) and washed three times with alcohol/ether. The pellet was denatured (100°C, 5 min) in 50 mM Tris/HCl (pH 7.5) containing 20% glycerol, 0.7 M 2-mercaptoethanol, 0.004% bromophenol blue and 3% SDS, and then migrated on a 10% SDS-polyacrylamide gel electrophoresis (PAGE). After separation, proteins were electrically transferred onto nitrocellulose membrane (Amersham, Les Ulis, France). […] Signal was quantified using an image analysis system (Biocom, Les Ulis, France).

[7] = system: mitochondria of cultured astrocytes; test: Mitochondrial membrane potential, JC-1 probe; assay type: cell-based, rat; conditions: ODN 0.1 nM, 10 min pretreatment, then 1 h 300 µM H2O2
Description: as §1
Cells seeded into 24-well plates were subjected to various treatments, incubated in the presence of the JC-1 probe (3 µl/ml) at 37°C for 15 min and then washed twice with PBS. Mitochondrial integrity was assessed with the JC-1 probe. […]

[8] = system: cultured rat astrocytes; conditions: ODN 0.1 nM, 300 µM H2O2; cited from earlier work
Description: In order to determine the receptor involved in the protective effect of ODN, we have first examined the dose- and the time-course effect of the peptide on detrimental action of H2O2. The protective action of ODN was concentration-dependent for doses ranging from 1 fM to 0.1 nM (Figure 1A). […] The protectiv ...

[9] = 10 min pre-incubation, 1 h 300 µM H2O2

Substance: ODN: octadecaneuropeptide, endozepine derived from diazepam-binding inhibitor; endogenous ligand of central-type benzodiazepine and metabotropic receptors; synthesized by Fmoc procedure (QATVGDVNTDRPGLLDLK; Octadecaneuropeptide; UniProt P11030 34-51, looked up)
- effect on H2O2-induced increase of Bax mRNA levels [1, 9]: totally prevented the increase of Bax mRNA levels induced by H2O2
- effect on Bax mRNA levels, peptide alone ([1]; 1 h, RT-PCR): had no effect on Bax mRNA levels
- effect on H2O2-induced morphological changes and loss of calcein labeling [2]: totally prevented the deleterious effects of H2O2
- effect on H2O2-induced caspase-3 activation [3]: inhibit H2O2-induced caspase-3 activation
- effect on H2O2-induced inhibition of Bcl-2 expression [4, 9]: suppressed the inhibitory effect of H2O2 on Bcl-2 expression
- effect on Bcl-2 mRNA levels, peptide alone ([4]; 1 h, RT-PCR, 6 wells from three cultures): induced an increase of Bcl-2 mRNA levels by itself
- maximum stimulation of cAMP formation [5]: 179 % over control
- ERK phosphorylation ([6]; ODN 0.1 nM, after 60 min of treatment, percentages of control): 206%
- time to detectable increase of ERK phosphorylation ([6]; ODN 0.1 nM, time-course): ≤ 20 min
- effect on ERK phosphorylation ([6]; graded ODN 1 fM to 0.1 nM, 1 h, Western blot): concentration-related stimulation of ERK phosphorylation
- effect on H2O2-induced alteration of the mitochondrial membrane potential [7]: suppressed this deleterious effect of H2O2 on the mitochondrial membrane potential
- effect on H2O2-induced astrocyte cell death [8]: able to reverse the effect of 300 µM H2O2-induced astrocyte cell death
